These results are taken from patent publication US20230144824A1, “1H-PYRAZOLO[4,3-d]PYRIMIDINE COMPOUNDS AS TOLL-LIKE RECEPTOR 7 (TLR7) AGONISTS” (BRISTOL-MYERS SQUIBB COMPANY, priority 2020, published 2023).

Assay [1] addresses T1, human TLR7 (Homo sapiens, UniProt Q9NYK1).
T1 construct: host or cells: HEK-Blue TLR7 cells (engineered human embryonic kidney cells)
T1 sequence (Q9NYK1 27-1049): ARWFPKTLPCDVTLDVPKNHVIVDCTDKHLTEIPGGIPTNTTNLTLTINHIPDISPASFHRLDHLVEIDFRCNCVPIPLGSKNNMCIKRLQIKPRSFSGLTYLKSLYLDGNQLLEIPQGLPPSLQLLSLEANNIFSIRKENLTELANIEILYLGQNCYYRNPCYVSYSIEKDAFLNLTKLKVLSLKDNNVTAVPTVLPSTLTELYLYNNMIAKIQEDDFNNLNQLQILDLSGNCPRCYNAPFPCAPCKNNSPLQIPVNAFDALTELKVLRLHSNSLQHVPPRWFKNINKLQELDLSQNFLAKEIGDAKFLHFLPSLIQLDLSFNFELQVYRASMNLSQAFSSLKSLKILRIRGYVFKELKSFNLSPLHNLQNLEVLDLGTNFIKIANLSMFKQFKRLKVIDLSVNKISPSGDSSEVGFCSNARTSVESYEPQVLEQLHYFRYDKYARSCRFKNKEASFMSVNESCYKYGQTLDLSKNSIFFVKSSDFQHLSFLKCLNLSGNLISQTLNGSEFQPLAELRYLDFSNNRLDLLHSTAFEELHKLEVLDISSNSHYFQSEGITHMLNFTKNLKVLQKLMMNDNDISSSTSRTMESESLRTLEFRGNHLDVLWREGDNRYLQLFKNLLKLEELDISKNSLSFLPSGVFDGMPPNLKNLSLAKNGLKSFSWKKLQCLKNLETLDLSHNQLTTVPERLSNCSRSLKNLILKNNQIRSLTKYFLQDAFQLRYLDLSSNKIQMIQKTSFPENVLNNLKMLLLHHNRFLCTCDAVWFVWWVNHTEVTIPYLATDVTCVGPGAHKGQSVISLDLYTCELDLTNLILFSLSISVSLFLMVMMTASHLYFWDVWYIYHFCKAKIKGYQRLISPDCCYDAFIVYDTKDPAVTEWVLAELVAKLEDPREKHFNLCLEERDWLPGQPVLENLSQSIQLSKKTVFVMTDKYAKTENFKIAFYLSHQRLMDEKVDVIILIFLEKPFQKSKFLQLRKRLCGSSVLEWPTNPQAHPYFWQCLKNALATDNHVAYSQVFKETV
Put plainly: Human TLR7 agonist activity assay (HEK-Blue TLR7 SEAP reporter). The class given is cell-based. The settings on record: HEK-Blue TLR7 cells, 18 h treatment, average where assay performed multiple times, read-out: hTLR7 Agonism EC50. As for the experimental part: This procedure describes a method for assaying human TLR7 (hTLR7) agonist activity of the compounds disclosed in this specification.
HEK-Blue™ TLR7 cells were added to each well of a 384-well tissue-culture plate (15,000 cells per well) and incubated 16-18 h at 37° C., 5% CO2. Compounds (100 nl) were dispensed into wells containing the HEK-Blue™ TLR cells and the treated cells were incubated at 37° C., 5% CO2. After 18 h treatment ten microliters of freshly-prepared Quanti-Blue™ reagent (Invivogen) was added to each well, incubated for 30 min (37° C., 5% CO2) and SEAP levels measured using an Envision plate reader (OD=620 nm). The half maximal effective concentration values (EC50; compound concentration which induced a response halfway between the assay baseline and maximum) were calculated.

Assay [2] has as its system CD69. Put plainly: Induction of CD69 in human whole blood. It is filed as cell-based. The settings on record: Homo sapiens, 17 h, 100% set to 1 uM of resiquimod, average where assay performed multiple times, read-out: hWB CD69 EC50. As to the method:
The induction of Type I interferon (IFN) MX-1 genes and the B-cell activation marker CD69 are downstream events that occur upon activation of the TLR7 pathway. The following is a human whole blood assay that measures their induction in response to a TLR7 agonist.
Heparinized human whole blood was harvested from human subjects and treated with test TLR7 agonist compounds at 1 mM. The blood was diluted with RPMI 1640 media and Echo was used to predot 10 nL per well giving a final concentration of 1 uM (10 nL in 10 uL of blood). After mixing on a shaker for 30 sec, the plates were covered and placed in a 37° C. chamber for o/n=17 hrs. Fixing/lysis buffer was prepared (5×->1× in H2O, warm at 37° C.; Cat #BD 558049) and kept the perm buffer (on ice) for later use.
For surface markers staining (CD69): prepared surface Abs: 0.045 ul hCD14-FITC (ThermoFisher Cat #MHCD1401)+0.6 ul hCD19-ef450 (ThermoFisher Cat #48-0198-42)+1.5 ul hCD69-PE (cat #BD555531)+0.855 ul FACS buffer. Added 3 ul/well, spin1000 rpm for 1 min and mixed on shaker for 30 sec, put on ice for 30 mins. Stop stimulation after 30 minutes with 70 uL of prewarmed 1× fix/lysis buffer and use Feliex mate to resuspend (15 times, change tips for each plate) and incubate at 37 C for 10 minutes.
Centrifuge at 2000 rpm for 5 minutes aspirate with HCS plate washer, mix on shaker for 30 sec and then wash with 70 uL in dPBS and pelleted 2×s (2000 rpm for 5 min) and 50 ul wash in FACS buffer pelleted 1×s (2000 rpm for 5 min). Mix on shaker for 30 sec. For Intracellular markers staining (MX-1): Add 50 ul of BD Perm buffer III and mix on shaker for 30 sec. Incubate on ice for 30 minutes (in the dark). Wash with 50 uL of FACS buffer 2×(spin @2300 rpm×5 min after perm) followed by mixing on shaker for 30 sec. Resuspended in 20 ul of FACS buffer containing MX1 antibody ( )(4812)-Alexa 647: Novus Biologicals #NBP2-43704AF647) 20 ul FACS bf+0.8 ul hIgG+0.04 ul MX-1. Spin 1000 rpm for 1 min, mix on shaker for 30 se and the samples were incubated at RT in the dark for 45 minutes followed by washing 2×FACS buffer (spin @2300 rpm×5 min after perm). Resuspend 20 ul (35 uL total per well) of FACS buffer and cover with foil and place in 4° C. to read the following day. Plates were read on iQuePlus. The results were loaded into toolset and IC50 curves are generated in curve master. The y-axis 100% is set to 1 uM of resiquimod.

In general, EC50 refers to the concentration at which the effect is half-maximal.

Regarding `COc1cc(C2CCN(C)CC2)cnc1Cn1ncc2nc(N)nc(NCC3CC4(CC4)C3)c21` [Compound 159, 1-{[3-methoxy-5-(1-methylpiperidin-4-yl)pyridin-2-yl]methyl}-N7-({spiro[2.3]hexan-5-yl}methyl)-1H-pyrazolo[4,3-d]pyrimidine-5,7-diamine], the figures for the EC50 in assay [1] and in assay [2] were 62 nM and 4.1 nM, respectively.

In the case of `CCC[C@@H](CCO)Nc1nc(N)nc2cnn(Cc3ncc(C4CCN(C)CC4)cc3OC)c12` [Compound 134, (3S)-3-[(5-amino-1-{[3-methoxy-5-(1-methylpiperidin-4-yl)pyridin-2-yl]methyl}-1H-pyrazolo[4,3-d]pyrimidin-7-yl)amino]hexan-1-ol], the EC50 in assay [1] is 14.1 nM; in assay [2], 2.6 nM.

Turning to `CCC[C@@H](CCO)Nc1nc(N)nc2cnn(Cc3ncc(C4CCN(C5CN(C)C5)CC4)cc3OC)c12` [Compound 138, (3S)-3-{[5-amino-1-({3-methoxy-5-[1-(1-methylazetidin-3-yl)piperidin-4-yl]pyridin-2-yl}methyl)-1H-pyrazolo[4,3-d]pyrimidin-7-yl]amino}hexan-1-ol], the values for the EC50 in assay [1] and in assay [2] were 26.7 nM and 5.6 nM, respectively.

As for `CCCCNc1nc(N)nc2cnn(Cc3ncc(C4CCN(C(=O)CN5C[C@@H]6C[C@H]5CN6)CC4)cc3OC)c12` [Compound 118, 1-[4-(6-{[5-amino-7-(butylamino)-1H-pyrazolo[4,3-d]pyrimidin-1-yl]methyl}-5-methoxypyridin-3-yl)piperidin-1-yl]-2-[(1S,4S)-2,5-diazabicyclo[2.2.1]heptan-2-yl]ethan-1-one], the EC50 was found to be 716 nM in assay [1] and 890 nM in assay [2].

Consider `CCC[C@@H](CCO)Nc1nc(N)nc2cnn(Cc3ncc(C4CCN(C5CC6(COC6)C5)CC4)cc3OC)c12` [Compound 148, (3S)-3-[(5-amino-1-{[3-methoxy-5-(1-{2-oxaspiro[3.3]heptan-6-yl}piperidin-4-yl)pyridin-2-yl]methyl}-1H-pyrazolo[4,3-d]pyrimidin-7-yl)amino]hexan-1-ol], for which the EC50 in assay [1] was determined as 14.1 nM; in assay [2], 0.49 nM.

`CCCCNc1nc(N)nc2c(C)nn(Cc3ncc(C4CCN(C)CC4)cc3OC)c12` [Compound 123, N7-butyl-1-{[3-methoxy-5-(1-methylpiperidin-4-yl)pyridin-2-yl]methyl}-3-methyl-1H-pyrazolo[4,3-d]pyrimidine-5,7-diamine]: the EC50 came to 491 nM in assay [1] and 40.2 nM in assay [2].

Consider `CCC[C@@H](CCO)Nc1nc(N)nc2cnn(Cc3ncc(C4CCCCN4)cc3OC)c12` (stereo partly drawn) [Compound 179, (3S)-3-[(5-amino-1-{[3-methoxy-5-(piperidin-2-yl)pyridin-2-yl]methyl}-1H-pyrazolo[4,3-d]pyrimidin-7-yl)amino]hexan-1-ol], for which the concentration for a half-maximal effect (EC50) in assay [1] came out at 235 nM; in assay [2], 2.8 nM.

Turning to `CCC[C@@H](CCO)Nc1nc(N)nc2cnn(Cc3nnc(C4CCN(C(C)C)CC4)cc3OC)c12` [Compound 177, (3S)-3-{[5-amino-1-({4-methoxy-6-[1-(propan-2-yl)piperidin-4-yl]pyridazin-3-yl}methyl)-1H-pyrazolo[4,3-d]pyrimidin-7-yl]amino}hexan-1-ol], the EC50 in assay [1] amounted to 579 nM; in assay [2] it was 9.9 nM.

On to `CCCCNc1nc(N)nc2cnn(Cc3cc(F)c(N4CCN(C(=O)CN5CCC[C@H]5CO)CC4)cc3OC)c12` [Compound 198, 1-[4-(4-{[5-amino-7-(butylamino)-1H-pyrazolo[4,3-d]pyrimidin-1-yl]methyl}-2-fluoro-5-methoxyphenyl)piperazin-1-yl]-2-[(2S)-2-(hydroxymethyl)pyrrolidin-1-yl]ethan-1-one], for which the results for the EC50 in assay [1] and in assay [2] were 48.2 nM and 50.9 nM, respectively.

Take `CCC[C@@H](CCO)Nc1nc(N)nc2cnn(Cc3ncc(C4CCCCCN4)cc3OC)c12` (mixture of isomers) [Compound 183, (3S)-3-[(5-amino-1-{[5-(azepan-2-yl)-3-methoxypyridin-2-yl]methyl}-1H-pyrazolo[4,3-d]pyrimidin-7-yl)amino]hexan-1-ol]: the EC50 in assay [1] stood at 89.9 nM; in assay [2], 2.8 nM.

As to `CCCCNc1nc(N)nc2cnn(Cc3ncc(C4CCN(C5CCC5)CC4)cc3OC)c12` [Compound 108, N7-butyl-1-{[5-(1-cyclobutylpiperidin-4-yl)-3-methoxypyridin-2-yl]methyl}-1H-pyrazolo[4,3-d]pyrimidine-5,7-diamine], the EC50 in assay [1] was 51.9 nM; in assay [2], 4.8 nM.

For the compound `CCC[C@@H](CCO)Nc1nc(N)nc2cnn(Cc3nc(C4CCN(C5CCOCC5)CC4)ccc3OC)c12` [Compound 189, (3S)-3-{[5-amino-1-({3-methoxy-6-[1-(oxan-4-yl)piperidin-4-yl]pyridin-2-yl}methyl)-1H-pyrazolo[4,3-d]pyrimidin-7-yl]amino}hexan-1-ol], the EC50 in assay [1] is 85.3 nM; in assay [2], 9.8 nM.

Regarding `CCC[C@@H](CCO)Nc1nc(N)nc2cnn(Cc3ncc(C4CCN(C5CN(C(C)C)C5)CC4)cc3OC)c12` [Compound 139, (3S)-3-({5-amino-1-[(3-methoxy-5-{1-[1-(propan-2-yl)azetidin-3-yl]piperidin-4-yl}pyridin-2-yl)methyl]-1H-pyrazolo[4,3-d]pyrimidin-7-yl}amino)hexan-1-ol], the values for the EC50 in assay [1] and in assay [2] were 8.1 nM and 1.1 nM, respectively.

As for `CCC[C@@H](CCO)Nc1nc(N)nc2cnn(Cc3cnc(C4CCN(CC(C)(C)O)CC4)cc3OC)c12` [Compound 176, (3S)-3-{[5-amino-1-({6-[1-(2-hydroxy-2-methylpropyl)piperidin-4-yl]-4-methoxypyridin-3-yl}methyl)-1H-pyrazolo[4,3-d]pyrimidin-7-yl]amino}hexan-1-ol], the EC50 in assay [1] was found to be 4.8 nM; in assay [2], 0.21 nM.

As for `CCCCNc1nc(N)nc2cnn(Cc3ncc(C4CCN(C(=O)CCOC)CC4)cc3OC)c12` [Compound 104, 1-[4-(6-{[5-amino-7-(butylamino)-1H-pyrazolo[4,3-d]pyrimidin-1-yl]methyl}-5-methoxypyridin-3-yl)piperidin-1-yl]-3-methoxypropan-1-one], the EC50 was 445 nM in assay [1] and 213 nM in assay [2].
